Laboratory results reported in patent US20240239818A1, “COMPOUNDS AND COMPOSITIONS COMPRISING FLUOROPHORES FOR USE IN VISUALIZATION AND PURIFICATION OR MANIPULATION” (priority 2022, published 2024).

What was measured:
[1] = molecular target: T1, msGFP-HaloTag® fusion localized to the mitochondrial outer membrane (Rhodococcus rhodochrous, UniProt P0A3G2, A155T/A167V/A172T/A224E/C128F/C176G/D78G/E160K/E257K/H272N/K175M/K195N/L47V/L88M/N227D/S58T/T264A/Y273L/Y87F); assay: HEK293T labeling and fluorescence microscopy; assay type: cell-based; settings: for cellular fluorescence intensity (JF ligand/msGFP ratio): HEK293T cells, 100 nM, same imaging conditions; for labeling of mitochondria-localized HaloTag®-msGFP fusion: live HEK293T cells, nanomolar concentration (100 nM, 1 h); for concentration at which ligand can be deployed for cellular labeling: live cells
T1 construct: expressed in transfected cells; host or cells: HEK293T, calcium phosphate transfection
T1 sequence (P0A3G2 other isoform, or with tags, fused parts or gaps with the stated changes): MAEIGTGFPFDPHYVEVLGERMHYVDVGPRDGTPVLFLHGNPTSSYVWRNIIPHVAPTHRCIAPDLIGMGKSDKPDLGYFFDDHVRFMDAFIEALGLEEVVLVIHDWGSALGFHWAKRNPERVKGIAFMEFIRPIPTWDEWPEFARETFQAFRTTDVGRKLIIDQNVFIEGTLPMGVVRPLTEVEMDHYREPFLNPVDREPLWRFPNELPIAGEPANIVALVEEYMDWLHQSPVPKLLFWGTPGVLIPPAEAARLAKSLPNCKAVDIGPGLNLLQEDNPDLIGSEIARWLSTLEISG
From the text: Plasmid construction. HaloTag®, amplified from the pHTC HaloTag® CMV-neo Vector (Promega; G7711) and monomeric-superfolder green fluorescent protein (msGFP; lab stock), was fused to the mitochondrial targeting signal from OMP25,^28 interspacing flexible GS(GSS)4 linkers between each domain by PCR Splicing by Overlap Extension (SOE). This construct was subcloned into hSynapsin promoter bearing a copy of FUGW.^29 FUGW was a gift from David Baltimore (Addgene plasmid #14883; RRID: Addgene_14883).^48 This construct was designated as pF(UG) hSyn HaloTag®-TEV-4×GS-msGFP-mito.
HEK293T cell culture. HEK293T cells (ATCC) were passaged before 80% confluency by trypsinization (Corning; 25-053-CI) and trituration. The cell suspension was then plated on glass coverslips (Warner instruments; 64-0734, CS-18R17) coated with poly-D-lysine (Thermofisher; ICN10269491) and cultured in Dulbecco's Modified Eagle Medium (DMEM; ThermoFisher; 11965-118) supplemented with 10% v/v fetal bovine serum (FBS, Atlanta Biological) and penicillin/streptomycin (pen/strep; ThermoFisher; MT-30-001-CI) at 37° C. in a humidified 5% v/v CO2 environment following ATCC guidelines. These HEK293T cells were tested for mycoplasma contamination using the Universal Mycoplasma Detection Kit (ATCC; 30-1012K) and validated using Short Tandem Repeat profiling by ATCC (ATCC; 135-XV) within the previous year.
HEK293T labeling and fluorescence microscopy. […] For pulse-chase experiments, HEK293T cells were incubated with biotin-HaloTag® ligand (6; #G8281, Promega) at either 100 nM or 10 μM for 1 hour at 37° C. and chased with 100 nM of JANELIA FLUOR® (JF)549-HaloTag® ligand (2HTL). […] For imaging, the coverslips containing HEK293T cells were fixed with 4% paraformaldehyde in PBS at 37° C. for 10 min, washed with PBS (3×), and mounted on glass slides with ProLong Glass Antifade Mountant with NucBlue™ Stain (ThermoFisher; P36981). These cells were imaged using a Zeiss LSM 880 with Airyscan and a plan-apochromatic 63×/1.40 oil objective in Fast Airyscan mode. The same image acquisition settings were used for each trial and condition. Images were then processed with automatic Airyscan deconvolution settings.

[2] = molecular target: T2, msGFP-HaloTag® fusion protein (mitochondria) from HEK293T cells (Rhodococcus rhodochrous, UniProt P0A3G2, A155T/A167V/A172T/A224E/C128F/C176G/D78G/E160K/E257K/H272N/K175M/K195N/L47V/L88M/N227D/S58T/T264A/Y273L/Y87F); assay: Affinity capture (streptavidin microbeads) and in-gel fluorescence; assay type: cell-based; settings: for capture efficiency: mean±SEM, n=3, streptavidin beads; for affinity capture (protein bound to streptavidin): streptavidin beads
T2 construct: and (4) HaloTag®; expressed in transfected cells; host or cells: HEK293T, calcium phosphate transfection
T2 sequence (P0A3G2 other isoform, or with tags, fused parts or gaps with the stated changes): as above
Description: Affinity capture and in-gel fluorescence experiments. Affinity capture pulldown isolation experiments of biotin-labeled HaloTag® fusion proteins were performed on ice-cold isolation buffer (IB) consisting of KCl (0.18 M), ethylene glycol-bis(β-aminoethyl ether)-N,N,N′,N′-tetraacetic acid (EGTA; 1 mM), 3-(N-morpholino)propanesulfonic acid (MOPS; 5 mM); the pH was adjusted to pH=7.35 using KOH(aq).^51 HEK293T cells were scraped with 500 μL IB and homogenized using 12 strokes with a 27G syringe. The resulting homogenate was spun at 4° C. at 1000 g for 3 min to pellet large cellular debris. 50 μL of streptavidin-coated microbeads (Miltenyi, 130-048-101) were added to the supernatant and incubated for 30 min at 4° C. with slow rotation. LS columns (Miltenyi, 130-042-401) were prepared by first washing with 3 mL IB consisting of 2.5% bovine serum albumin (BSA; Jackson ImmunoResearch, 001-000-162) and then with plain IB (3×). Prior to supernatant-microbead mixture being loaded onto LS columns, 5% volume was taken for downstream total fraction calculations (i.e., the “total/20” sample). Columns and samples were kept at 4° C. (cold room) while samples were loaded onto columns and washed with IB (3×); this fraction was collected as designated as “wash”. After the washing step, the column was removed from the QuadroMACs magnet holder (Miltenyi, 130-092-857) and eluted with gentle plunge action into an Eppendorf tube; this was labeled as “eluate”. From here, there were three fractions for each condition: total/20, wash (unbound), and eluate (bound). Since mitochondria were being isolated, these samples were spun at 4° C. and 20,000 g to pellet mitochondria. These samples were then solubilized using the lysis buffer containing 1×PBS, 2% SDS, 1% Triton x-100, 10 mM EDTA, and protease inhibitors (2 mM PMSF, aprotinin, leupeptin, and pepstatin A). Samples were then incubated at 72° C. for 3-4 min after the addition of sample buffer (SB) (DTT, glycerol, and bromophenol blue). For protein detection, 10-20 μL of the sample was subjected to sodium dodecyl sulfate-polyacrylamide gel electrophoresis (SDS-PAGE), using 13% gels. The affinity capture pulldown efficiency was monitored using in-gel fluorescence. The msGFP signal from HaloTag®-TEV-4×GS-msGFP-mito after cell lysis and SDS-PAGE was analyzed, in-gel, using a BioRad Chemidoc MP imager (BioRad) through GFP fluorescence excitation and emission filters. Data were quantified by densitometry using Fiji.^52 Capture efficiency was calculated using equation 3:
[formula] • where Ieluate is the in-gel fluorescence intensity of the bead-bound fraction and Itotal/20 is the in-gel fluorescence intensity of the 5% of crude sample reserved for concentration control (i.e., the “total/20” sample).
Evaluation of biotin-HaloTag® ligand. A live cell permeable biotin reagent was saught for affinity pulldown of HaloTag® fusion proteins, given the broad utility of biotin conjugates in biochemistry and cell biology. To evaluate the performance of biotin-containing HaloTag® ligand, an assay was developed (FIG. 3A) where the HaloTag® is expressed as a fusion with monomeric superfolder green fluorescent protein (msGFP); the construct also included an OMP25 sequence to localize the fusion protein to the outer mitochondrial membrane, allowing straightforward imaging and affinity capture experiments.^28-29 HEK293T cells expressing this fusion protein were incubated with biotin-containing HaloTag® ligands followed by washing and cell lysis. The crude supernatant was incubated with streptavidin-coated magnetic microbeads, applied to a magnetic column, and washed. The magnet was removed, and the bead-bound mitochondria were eluted, lysed, and the resulting solution was analyzed by sodium dodecyl sulfate-polyacrylamide gel electrophoresis (SDS-PAGE) and in-gel fluorescence. To minimize dilution of the sample only the initial bead-bound fraction was collected, leaving some material on the column. […]

Molecule | cellular fluorescence intensity (JF ligand/msGFP ratio) [1] | labeling of mitochondria-localized HaloTag®-msGFP fusion [1] | capture efficiency [2] [%] | affinity capture (protein bound to streptavidin) [2] | concentration at which ligand can be deployed for cellular labeling [1] [nM]
Biotin-JF549-HaloTag® ligand [compound 12] | poor labeling | did not show appreciable cellular labeling | – | – | –
C[Si]1(C)C2=CC(=[N+]3CC(F)(C(=O)NCCOCCOCCNC(=O)CCCC[C@@H]4SC[C@@H]5NC(=O)N[C@@H]54)C3)C=CC2=C(c2cc(C(=O)NCCOCCOCCCCCCCl)ccc2C(=O)[O-])c2ccc(N3CC(F)C3)cc21 (stereo partly shown) [compound 15, Biotin-JF635-HaloTag® ligand] | lower fluorescence intensity than 5HTL | labeled the mitochondria in live cells | 43.4±2.3 | efficient affinity capture | 100
C[Si]1(C)c2cc(N3CC(F)C3)ccc2C2(OC(=O)c3ccc(C(=O)NCCOCCOCCCCCCCl)cc32)c2ccc(N3CC(F)C3)cc21 [5HTL, JF635-HaloTag® ligand, reference compound] | – | labeled the mitochondria in live cells | – | no appreciable protein capture | –
C[Si]1(C)C2=CC(=[N+]3CC(C(=O)NCCOCCOCCNC(=O)CCCC[C@@H]4SC[C@@H]5NC(=O)N[C@@H]54)C3)C=CC2=C(c2cc(C(=O)NCCOCCOCCCCCCCl)ccc2C(=O)[O-])c2ccc(N3CCC3)cc21 (stereo partly shown) [compound 14, Biotin-JF646-HaloTag® ligand] | – | labeled the mitochondria in live cells | 44.8±2.8 | efficient affinity capture | 100
